According to ChEMBL document CHEMBL2311251, “Synthesis and structure-activity relationship of piperidine-derived non-urea soluble epoxide hydrolase inhibitors” (Bioorg Med Chem Lett, 2013):

What was measured:
[1] = target: T1, Bifunctional epoxide hydrolase 2 (Homo sapiens, UniProt P34913); test: Inhibition of human sEH assessed as 6-methoxy-2-naphthaldehyde generation preincubated for 10 before addition of cyano(2-methyl-oxynaphthalen-6-yl)methyl trans-(3-phenyloxyran-2-yl) methyl carbonate by fluorescence analysis
T1 sequence (P34913 whole entry): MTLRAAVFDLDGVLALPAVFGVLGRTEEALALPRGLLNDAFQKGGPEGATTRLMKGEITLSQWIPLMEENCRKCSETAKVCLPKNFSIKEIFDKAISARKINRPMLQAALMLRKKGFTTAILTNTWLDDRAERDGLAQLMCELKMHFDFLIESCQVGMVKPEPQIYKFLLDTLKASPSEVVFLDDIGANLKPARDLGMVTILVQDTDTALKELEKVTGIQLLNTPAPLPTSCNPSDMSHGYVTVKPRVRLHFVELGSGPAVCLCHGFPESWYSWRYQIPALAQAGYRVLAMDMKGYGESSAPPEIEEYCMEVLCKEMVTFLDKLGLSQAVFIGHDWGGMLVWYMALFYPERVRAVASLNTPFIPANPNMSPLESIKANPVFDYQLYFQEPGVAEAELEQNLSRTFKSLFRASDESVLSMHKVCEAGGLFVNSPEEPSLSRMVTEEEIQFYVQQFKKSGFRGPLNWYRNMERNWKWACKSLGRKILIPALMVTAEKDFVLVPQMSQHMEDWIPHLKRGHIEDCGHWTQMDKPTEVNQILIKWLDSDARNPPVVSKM

Liver microsomes = test: Half life in human liver microsomes after 90 mins by LC/MS analysis; assay type: ADME, Microsome; details: 1.5 h

SMILES | IC50 [1] | t1/2 (Liver microsomes)
Cc1ccc(S(=O)(=O)N2CCC(C(=O)Nc3ccc4ncccc4c3)CC2)c(C)c1 | 13 nM | –
COC(=O)c1ccc2cc(NC(=O)C3CCN(S(=O)(=O)c4ccc(C)cc4C)CC3)ccc2c1 | 110 nM | –
Cc1ccc(S(=O)(=O)N2CCC(C(=O)Nc3ccc4c(c3)OCO4)CC2)c(C)c1 | 5.2 nM | 46 min
Cc1ccc(S(=O)(=O)N2CCC(C(=O)NC3CC3)CC2)c(C)c1 | – | 180 min
Cc1ccc(S(=O)(=O)N2CCC(C(=O)NC3CCCc4ccccc43)CC2)c(C)c1 (stereo unspecified) | 41 nM | –
Cc1ccc(S(=O)(=O)N2CCC(C(=O)Nc3ccccc3)CC2)c(C)c1 | 6.9 nM | –
Cc1ccc(S(=O)(=O)N2CCC(C(=O)Nc3ccccc3Cl)CC2)c(C)c1 | 8.7 nM | –
Cc1ccc(S(=O)(=O)N2CCC(C(=O)Nc3ccccc3C)CC2)c(C)c1 | 20 nM | –
COc1ccc(NC(=O)C2CCN(S(=O)(=O)c3ccc(C)cc3C)CC2)cc1 | 25 nM | –
Cc1ccc(S(=O)(=O)N2CCC(C(=O)Nc3ccc(Oc4ccccc4)cc3)CC2)c(C)c1 | 20 nM | –
Cc1ccc(S(=O)(=O)N2CCC(C(=O)Nc3ccc(C(=O)O)cc3)CC2)c(C)c1 | 17 nM | –
Cc1ccc(S(=O)(=O)N2CCC(C(=O)Nc3ccc([N+](=O)[O-])cc3)CC2)c(C)c1 | 12 nM | –
Cc1ccc(S(=O)(=O)N2CCC(C(=O)Nc3ccc(N4CCCCC4)c(C(N)=O)c3)CC2)c(C)c1 | 43 nM | –
Cc1ccc(S(=O)(=O)N2CCC(C(=O)Nc3ccc(C(C)C)cc3)CC2)c(C)c1 | 6.7 nM | 25 min
Cc1ccc(S(=O)(=O)N2CCC(C(=O)Nc3ccc(S(=O)(=O)C(F)(F)F)cc3)CC2)c(C)c1 | 1.6 nM | 36 min
Cc1ccc(S(=O)(=O)N2CCC(C(=O)Nc3ccc(F)cc3)CC2)c(C)c1 | 290 nM | –
Cc1ccc(S(=O)(=O)N2CCC(C(=O)Nc3ccc(Br)cc3)CC2)c(C)c1 | 45 nM | –
Cc1ccc(S(=O)(=O)N2CCC(C(=O)Nc3ccc(Cl)c(C(F)(F)F)c3)CC2)c(C)c1 | 78 nM | –
Cc1ccc(S(=O)(=O)N2CCC(C(=O)Nc3ccc4ccccc4c3)CC2)c(C)c1 | 8.3 nM | 8.7 min
Cc1ccc(S(=O)(=O)N2CCC(C(=O)Nc3cnc4ccccc4c3)CC2)c(C)c1 | 2.3 nM | –
Cc1ccc(S(=O)(=O)N2CCC(C(=O)Nc3cccc4cnccc34)CC2)c(C)c1 | 23 nM | 220 min

SMILES | IC50 [1] | t1/2 (Liver microsomes)
Cc1ccc(S(=O)(=O)N2CCC(C(=O)Nc3ccc4cc(C(=O)O)ccc4c3)CC2)c(C)c1 | 0.6 nM | 36 min
COc1cc2c(cc1NC(=O)C1CCN(S(=O)(=O)c3ccc(C)cc3C)CC1)OCO2 | 30000 nM | –
Cc1ccc(S(=O)(=O)N2CCC(C(=O)N[C@H]3C[C@@H]3c3ccccc3)CC2)c(C)c1 | 6900 nM | –
Cc1ccc(S(=O)(=O)N2CCC(C(=O)NC3CCCC3)CC2)c(C)c1 | – | 14 min
Cc1ccc(S(=O)(=O)N2CCC(C(=O)NC34CC5CC(CC(C5)C3)C4)CC2)c(C)c1 | 1.7 nM | 14 min
Cc1ccc(S(=O)(=O)N2CCC(C(=O)Nc3ccccc3F)CC2)c(C)c1 | 1.1 nM | –
Cc1ccc(S(=O)(=O)N2CCC(C(=O)Nc3ccccc3Br)CC2)c(C)c1 | 0.6 nM | –
Cc1ccc(S(=O)(=O)N2CCC(C(=O)Nc3ccccc3O)CC2)c(C)c1 | 1.2 nM | 2.4 min
Cc1ccc(S(=O)(=O)N2CCC(C(=O)Nc3ccc(O)cc3)CC2)c(C)c1 | 0.4 nM | –
COC(=O)c1ccc(NC(=O)C2CCN(S(=O)(=O)c3ccc(C)cc3C)CC2)cc1 | 8.5 nM | 3.7 min
Cc1ccc(S(=O)(=O)N2CCC(C(=O)Nc3ccc(OC(F)(F)F)cc3)CC2)c(C)c1 | 23 nM | –
Cc1ccc(S(=O)(=O)N2CCC(C(=O)Nc3ccc(N4CCCCC4)cc3)CC2)c(C)c1 | 20 nM | –
Cc1ccc(S(=O)(=O)N2CCC(C(=O)Nc3ccc(N4CCOCC4)cc3)CC2)c(C)c1 | 250 nM | –
Cc1ccc(S(=O)(=O)N2CCC(C(=O)Nc3ccc(C(F)(F)F)cc3)CC2)c(C)c1 | 30 nM | –
Cc1ccc(S(=O)(=O)N2CCC(C(=O)Nc3cccc(C(F)(F)F)c3)CC2)c(C)c1 | 640 nM | –
Cc1ccc(S(=O)(=O)N2CCC(C(=O)Nc3ccc(Cl)cc3)CC2)c(C)c1 | 2200 nM | –
Cc1ccc(S(=O)(=O)N2CCC(C(=O)Nc3cc(Cl)cc(Cl)c3)CC2)c(C)c1 | 25 nM | –
Cc1ccc(S(=O)(=O)N2CCC(C(=O)Nc3ccc(Cl)c(Cl)c3)CC2)c(C)c1 | 55 nM | –
Cc1ccc(S(=O)(=O)N2CCC(C(=O)Nc3cccc4cccnc34)CC2)c(C)c1 | 6 nM | 11 min
Cc1ccc(S(=O)(=O)N2CCC(C(=O)NCC(C)C)CC2)c(C)c1 | 18 nM | –
